In PMC6268642, “Facile Synthesis and Herbicidal Evaluation of 4H-3,1-Benzoxazin-4-ones and 3H-Quinazolin-4-ones with 2-Phenoxymethyl Substituents” (Molecules, 2012):
Like-named read-outs stand apart in the source and are kept apart here.

Assays:
[1] = test system: barnyard grass Echinochloa crusgalli; assay: Petri dish culture, growth inhibition of root and stalk of barnyard grass; format: in vivo; details: 5 days; for inhibition at 1 µg/mL / inhibition at 10 µg/mL: Echinochloa crus-galli, 120 h
Procedure: (§1) The synthesized compounds were tested for the herbicidal activity on model plants including a monocotyledon (barnyard grass) and a dicotyledon (rape) by the reported Petri dish culture method. The percent inhibitory ratios against the growth of root and stalk of barnyard grass and rape at different dosage concentrations were calculated, and the compounds with appreciable inhibitory potencies are selected and shown in Table 1 and Table 2. Several features of the inhibitory activities can be derived. First, all the compounds have stronger inhibition against the growth of the dicotyledon rape than against the monocotyledon barnyard grass, showing appreciable selectivity.
(§2) The herbicidal activity was examined for the growth inhibition effect of the dicotyledon rape Brassica napus and the monocotyledon barnyard grass Echinochloa crusgalli, using the standard Petri dish test and the pre-emergence treatment procedure. […] Nine mL of the solution was added in a Petri dish of 9 cm diameter and two pieces of filter paper were placed on the dish bottom. Twenty seeds each of rape and barnyard grass were placed on the filter paper. The covered Petri dish was transferred into an artificial climate incubator (MGC-400H, Shantou Keyi Co., Ltd., China), where the conditions were controlled at temperature 23 ± 1 °C, humidity 60 ± 5%, light intensity 10 Klux, and photoperiod 12 h/day. The incubation was continued for 5 days, then the lengths of 10 roots and 10 stems for each type of plant were measured and the mean values were calculated. The percent inhibitory ratios were calculated relative to control plants exposing to distilled water instead of the compound solution.

[2] = test system: rape Brassica napus; assay: Petri dish culture, growth inhibition of root and stalk of rape; format: in vivo; details: 5 days; for inhibition at 1 µg/mL / inhibition at 10 µg/mL: Brassica napus, 120 h
Procedure: as §1, §2

[3] = 1 mg/L, root growth, read-out: Relative inhibition, root
[4] = 1 mg/L, stalk growth, read-out: Relative inhibition, stalk
[5] = 10 mg/L, root growth, read-out: Relative inhibition, root
[6] = 10 mg/L, stalk growth, read-out: Relative inhibition, stalk

Row | Compound | Relative inhibition, root ([1]; 1 mg/L, root growth) [%] | Relative inhibition, stalk ([1]; 1 mg/L, stalk growth) [%] | Relative inhibition, root ([1]; 10 mg/L, root growth) [%] | Relative inhibition, stalk ([1]; 10 mg/L, stalk growth) [%] | Relative inhibition, root ([2]; 1 mg/L, root growth) [%] | Relative inhibition, stalk ([2]; 1 mg/L, stalk growth) [%] | Relative inhibition, root ([2]; 10 mg/L, root growth) [%] | Relative inhibition, stalk ([2]; 10 mg/L, stalk growth) [%] | inhibition at 1 µg/mL [1, 3] [%] | inhibition at 1 µg/mL [1, 4] [%] | inhibition at 10 µg/mL [1, 5] [%] | inhibition at 10 µg/mL [1, 6] [%] | inhibition at 1 µg/mL [2, 3] [%] | inhibition at 1 µg/mL [2, 4] [%] | inhibition at 10 µg/mL [2, 5] [%] | inhibition at 10 µg/mL [2, 6] [%] | melting point [°C]
1 | 7-Chloro-2-((2,4-dichlorophenoxy)methyl)-3-methyl-3H-quinazolin-4-one [4r] | 12.3 | 1.4 | 34.6 | 0.0 | 32.3 | −8.8 | 44.5 | −2.4 | – | – | – | – | – | – | – | – | –
2 | O=c1oc(COc2ccccc2)nc2ccccc12 [3a, 2-(Phenoxymethyl)-4H-3,1-benzoxazin-4-one] | – | – | – | – | – | – | – | – | 19.3 | -29.6 | 64.8 | 26.9 | 71.2 | 27 | 89.1 | 79.4 | 87.9 to 92.1
3 | O=c1oc(COc2ccccc2)nc2cccc(Cl)c12 [3b, 5-Chloro-2-(phenoxymethyl)-4H-3,1-benzoxazin-4-one] | – | – | – | – | – | – | – | – | 47.2 | 0.5 | 56.3 | 24.1 | 59.6 | 39.2 | 83.3 | 51.9 | 118.3 to 120.9
4 | O=c1oc(COc2ccccc2)nc2ccc(Cl)cc12 [3c, 6-Chloro-2-(phenoxymethyl)-4H-3,1-benzoxazin-4-one] | – | – | – | – | – | – | – | – | 23.7 | 0.3 | 62.6 | 46.7 | 45.4 | 26.7 | 83.9 | 64.6 | 113.1 to 115.2
5 | O=c1oc(COc2ccccc2)nc2cc(Cl)ccc12 [3d, 7-Chloro-2-(phenoxymethyl)-4H-3,1-benzoxazin-4-one] | – | – | – | – | – | – | – | – | 41.9 | -23.6 | 62.3 | 28.3 | 75.5 | 44.9 | 93.5 | 71.6 | 117.3 to 119.9
6 | Cc1ccc2nc(COc3ccccc3)oc(=O)c2c1 [3e, 6-Methyl-2-(phenoxymethyl)-4H-3,1-benzoxazin-4-one] | – | – | – | – | – | – | – | – | 26.1 | -17.2 | 71.4 | 31.1 | 55.3 | 11.6 | 92.3 | 81.6 | 133.3 to 135.1
7 | COc1cc2nc(COc3ccccc3)oc(=O)c2cc1OC [3f, 6,7-Dimethoxy-2-(phenoxymethyl)-4H-3,1-benzoxazin-4-one] | – | – | – | – | – | – | – | – | 35.5 | 32 | 63 | 46.7 | 94.9 | 32.9 | 71.1 | 63.3 | 132.1 to 134.3
8 | O=c1oc(COc2ccc(Cl)cc2)nc2cc(Cl)ccc12 [3j, 7-Chloro-2-((4-chlorophenoxy)methyl)-4H-3,1-benzoxazin-4-one] | – | – | – | – | – | – | – | – | 43.6 | 12.8 | 92.3 | 31.1 | 91.4 | 59.5 | 100 | 91.1 | 189.9 to 191.8
9 | Cc1ccc2nc(COc3ccc(Cl)cc3)oc(=O)c2c1 [3k, 2-((4-Chlorophenoxy)methyl)-6-methyl-4H-3,1-benzoxazin-4-one] | – | – | – | – | – | – | – | – | 48.4 | 18.2 | 77.1 | -8.8 | 84.7 | 29.3 | 100 | 82.1 | 143.7 to 145.6
